Measurements: patent US20050020516A1, “Effects of combined administration of farnesyl transferase inhibitors and signal transduction inhibitors” (Whitehead Institute for Biomedical Research, priority 2000, published 2005)

What was measured:
[1] = system: STI-571 resistant BaF3-BCR/ABL cells; assay: Proliferation in liquid culture, viable cells by dye exclusion; assay type: cell-based, murine; details: 0.5 or 1.0 μM STI-571 or increasing concentrations of SCH66336
Description: Viable cells were assessed at daily intervals by dye exclusion.

[2] = system: parental BaF3-BCR/ABL cells; assay: Caspase-3 immunoblotting (cleavage of procaspase-3); details: protein lysates of treated cells
Description: (§1) Some cells were lysed and subjected to immunoblotting with caspase-3 antibody (FIG. 8A) or analyzed for annexin V staining (FIG. 8B) by FACS using the Apo-Alert kit (Clontech).
Cells were washed in cold PBS and lysed in NP-40 lysis buffer (1% NP-40, 150 mM NaCl, 20 mM Tris (pH 7.4), 10% glycerol, 10 mM NaVO3, 1 mM ZnCl2, 1 mM MgCl2, and 2 mM PMSF). Approximately 50 ug of protein were separated by SDS-PAGE and electrophoretically transferred to nitrocellulose membrane using standard protocols. Membranes were incubated with primary and secondary antibodies in TBST buffer (20 mM Tris-HCl [pH 7.4], 500 mM NaCl, 0.01% Tween 20) containing 5% dry milk. Immunoreactivity was detected by enhanced chemiluminescence.

[3] = system: STI-571 resistant LAMA84 cells; assay: Proliferation in liquid culture; assay type: cell-based, human; details: STI-571 resistant LAMA84, similar manner as parental line
[4] = system: STI-571 sensitive or resistant BCR/ABL positive cell lines (BaF3-BCR/ABL, K562, LAMA-84, AR230); assay: Cell viability by trypan blue dye exclusion; assay type: cell-based; details: SCH66336 alone at concentrations up to 5 μM, STI-571 sensitive or resistant cell lines
Description: FIGS. 9A-9E are graphs showing that SCH66336 and STI571 in combination induce apoptosis in STI571 resistant cells. […] Viability of cells was assessed at daily intervals by dye exclusion.

[5] = system: STI-571 resistant K562 cells; assay: Proliferation in liquid culture; assay type: cell-based, human; details: STI-571 resistant K562, similar manner as parental line
[6] = system: STI-571 resistant clone of a BaF3-BCR/ABL; assay: Soft agar colony formation of STI-571 resistant BaF3-BCR/ABL clone; details: STI-571 resistant BaF3-BCR/ABL clone compared with parental cells
Description: Macroscopic colonies were counted in duplicate plates on day 10. In some cases colony numbers were normalized by dividing the number of colonies under a given condition by the number of colonies formed in the presence of no drug (DMSO alone).

[7] = system: STI-571 resistant AR230 cells; assay: Proliferation in liquid culture; assay type: cell-based, human; details: STI-571 resistant AR230, similar manner as parental line
[8] = system: STI-571 resistant hematopoietic progenitors from CML patients; assay: Methylcellulose hematopoietic colony assay of primary cells from CML patients relapsed on STI-571; assay type: cell-based; details: Homo sapiens, read-out: IC50, colony formation of STI-571 resistant hematopoietic progenitors
Description: Numbers are normalized to control (DMSO) and are presented as means +/−S.D. of duplicate plates.
Low density mononucleocytes were isolated from either fresh or cryo-preserved peripheral blood using Lymphoprep (Nycomed, Oslo, Norway). […] All clonogenic assays were performed in duplicate.

BaF3-BCR/ABL cells = assay: Soft agar colony formation of BaF3-BCR/ABL cells; assay type: cell-based, murine; details: Mus musculus, 240 h; BaF3-BCR/ABL cells in soft agar, colonies counted day 10; read-out: IC50, inhibition of soft agar colony number
[9] = system: parental BaF3-BCR/ABL cells; assay: Apoptosis by annexin V staining (ApoAlert Annexin V kit, FACS); details: 2.0 uM SCH66336, 48 hours
Description: as §1
Apoptosis was measured in cells after incubation with drugs by staining for annexin-positive cells using the ApoAlert Annexin V kit (Clontech, Palo Alto, Calif.). Flow cytometry analysis was performed using Cell Quest (Becton Dickinson, Franklin Lakes, N.J.).

Q: For `NC(=O)N1CCC(CC(=O)N2CCC([C@H]3c4ncc(Br)cc4CCc4cc(Cl)cc(Br)c43)CC2)CC1` [SCH66336], which “effect on growth / proliferation” value [1] is on record?
A: dose-dependent inhibition of proliferation

Q: What about the “levels of active caspase-3 (immunoblot)” value [2] of the same compound?
A: low levels of active caspase-3

Q: And the effect on proliferation [3]?
A: inhibits the proliferation

Q: What about the “effect on cell viability” value [4] of the same compound?
A: little effect on cell viability

Q: What about the effect on proliferation [5] of the same compound?
A: inhibits the proliferation

Q: And the “effect on soft agar colony formation of STI-571 resistant clone” value [6]?
A: as sensitive, if not more so

Q: And the effect on proliferation [7]?
A: inhibits the proliferation

Q: And the IC50 [8]?
A: 250 to 500 nM

Q: What about the IC50 (BaF3-BCR/ABL cells) of the same compound?
A: ~100 nM

Q: And the “levels of annexin V staining” value [9]?
A: Low levels of annexin V staining
